We go through eleven molecules from PubChem BioAssay (NCI).

“And” between values parts separate entries of the source, which are not always exact repeats. Equal values may be shown once.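 The compound was tested at five concentrations on cells cultured in 96-well plates, with a 48-hour exposure period. GI50 marks 50% less growth. At the TGI there is no net growth.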

Among the test systems are KM12 colon; SW-620 colon; NCI/ADR-RES ovarian; HCC-2998 colon; ACHN renal; NCI-H226 lung; SK-OV-3 ovarian; TK-10 renal; MDA-MB-435; A498 renal.
What all share (assay): NCI-60 cell line screen, 48 h

On to `N[C@@H](CSSC[C@H](N)C(=O)N1CCn2cc(-c3ccccc3)nc2[C@@H]1CC1CCCCC1)C(=O)N1CCn2cc(-c3ccccc3)nc2[C@@H]1CC1CCCCC1`, for which the GI50 in the assay with KM12 colon was 0.91 µM; in the assay on SW-620 colon it was 1.24 µM; with NCI/ADR-RES ovarian, 2.95 µM; with HCC-2998 colon, 1.66 µM; in the assay with ACHN renal it was 1.77 µM; with NCI-H226 lung, 2.02 µM. In addition, the GI50 was 1.59 µM in the assay with SK-OV-3 ovarian, 2.05 µM in the assay with TK-10 renal, 0.331 µM in the assay with MDA-MB-435 and 2.68 µM in the assay with A498 renal. Moreover, the TGI in the assay with KM12 colon stood at 2.47 µM; in the assay on SW-620 colon it was 3.36 µM; in the assay on NCI/ADR-RES ovarian, 9.32 µM; in the assay with HCC-2998 colon, 3.17 µM; in the assay on ACHN renal, 3.81 µM; with NCI-H226 lung it was 4.09 µM. Further, the TGI stood at 5.42 µM with SK-OV-3 ovarian, 4.45 µM in the assay on TK-10 renal, 1.45 µM in the assay on MDA-MB-435 and 5.39 µM in the assay on A498 renal.

With `CCN1C(=O)N(CC)C2C1NN=c1s/c(=C\c3ccc(OC)cc3)c(=O)n12` (centres undefined), the GI50 in the assay with KM12 colon is 0.0716 µM; in the assay on SW-620 colon it was 0.136 µM; with NCI/ADR-RES ovarian it was 0.0744 µM; in the assay on HCC-2998 colon, 0.357 µM; in the assay on ACHN renal, 0.165 µM; in the assay with NCI-H226 lung, 1.72 µM. In addition, the GI50 in the assay with SK-OV-3 ovarian was 0.267 µM; in the assay with TK-10 renal, over 33.5 µM; in the assay with MDA-MB-435 it was 0.031 µM; in the assay with A498 renal it was 0.0222 µM. Moreover, the TGI is over 100 µM with KM12 colon; over 100 µM with SW-620 colon; over 100 µM in the assay with NCI/ADR-RES ovarian; over 100 µM in the assay with HCC-2998 colon; over 100 µM in the assay with ACHN renal; 17.1 µM with SK-OV-3 ovarian. Also, the TGI in the assay with TK-10 renal was over 100 µM; in the assay on MDA-MB-435 it was 0.105 µM; in the assay with A498 renal, 0.0924 µM.

On to `C#Cc1ccc(-n2c(/C=C/c3ccc4ccccc4c3)nc3ncccc3c2=O)cc1`, for which the GI50 in the assay on KM12 colon was 2.95 µM; in the assay with NCI/ADR-RES ovarian, 3.29 µM; with HCC-2998 colon it was 2.32 µM; in the assay with ACHN renal, 2.57 µM; with SK-OV-3 ovarian, 7.55 µM; in the assay on TK-10 renal, 4.04 µM. Also, the figures for the GI50 in the assay with MDA-MB-435 and in the assay with A498 renal were 2.06 µM and 1.69 µM, respectively. The TGI with KM12 colon is over 100 µM; with NCI/ADR-RES ovarian, over 100 µM; with HCC-2998 colon, 5.04 µM; in the assay with ACHN renal it was over 100 µM; in the assay with SK-OV-3 ovarian, over 100 µM; in the assay with TK-10 renal it was over 100 µM. The results for the TGI in the assay with MDA-MB-435 and in the assay on A498 renal were over 100 µM and 5.86 µM, respectively.

As to `CNCCNc1nc2ccccc2c2c(=O)c3cccc(C)c3sc12`, the GI50 with KM12 colon was 1.11 µM; in the assay with SW-620 colon it was 0.915 µM; in the assay with NCI/ADR-RES ovarian, 1.76 µM; in the assay with HCC-2998 colon it was 0.824 µM; in the assay with ACHN renal, 1.7 µM; in the assay with NCI-H226 lung, 7.19 µM. Besides, the GI50 is 1.05 µM in the assay with MDA-MB-435 and 1.07 µM in the assay on A498 renal. Also, the TGI in the assay with KM12 colon stood at 2.88 µM; in the assay on SW-620 colon, 1.92 µM; in the assay on NCI/ADR-RES ovarian, 7.35 µM; with HCC-2998 colon, 1.65 µM; in the assay with ACHN renal it was 7.11 µM; in the assay with NCI-H226 lung, 16.7 µM. Moreover, the TGI in the assay with MDA-MB-435 was 2.22 µM; with A498 renal it was 3.94 µM.

Take `Cc1ccc(S(=O)(=O)CC2(Br)CCc3ccccc3C2=O)cc1` (centres undefined): the TGI with KM12 colon was over 100 µM; with SW-620 colon, over 100 µM; with NCI/ADR-RES ovarian, over 100 µM; in the assay on ACHN renal it was 38.2 µM; in the assay with NCI-H226 lung it was over 100 µM; with SK-OV-3 ovarian it was over 100 µM. Besides, the TGI in the assay on TK-10 renal was 85.7 µM; in the assay with MDA-MB-435 it was 40.3 µM; in the assay with A498 renal, 95 µM.

As for `COC(=O)C1(C)CCCC2(C)c3cc(OC)ccc3C(=O)C(Br)C12` (centres undefined), the TGI is over 10 µM with KM12 colon; 4.39 µM in the assay with SW-620 colon; over 10 µM in the assay with NCI/ADR-RES ovarian; over 10 µM in the assay with HCC-2998 colon; over 10 µM in the assay on NCI-H226 lung; over 10 µM in the assay with SK-OV-3 ovarian. Besides, the TGI in the assay with TK-10 renal, with MDA-MB-435 and in the assay on A498 renal was over 10 µM in each case.

For the molecule `O=c1[nH]c(SCc2ccccc2[N+](=O)[O-])nc2nc[nH]c12`, the TGI with KM12 colon is over 100 µM; in the assay with SW-620 colon it was over 100 µM; in the assay with NCI/ADR-RES ovarian it was over 100 µM; in the assay on ACHN renal, over 100 µM; with NCI-H226 lung, > 100 µM and 98.3 µM; with SK-OV-3 ovarian it was over 100 µM. Besides, the TGI in the assay with TK-10 renal, in the assay with MDA-MB-435 and with A498 renal was over 100 µM in each case. For the same molecule, the GI50 with NCI-H226 lung is 84.7 µM and 33.4 µM.

With `Fc1ccc(C2C3CCOc4c(ccc5ccccc45)C3=NN2c2ccccc2)cc1` (centres undefined), the GI50 with KM12 colon was over 100 µM; with SW-620 colon, over 100 µM; with NCI/ADR-RES ovarian, over 100 µM; with ACHN renal, 88.6 µM; in the assay with NCI-H226 lung, 34.2 µM; in the assay with SK-OV-3 ovarian it was over 100 µM. In addition, the GI50 with TK-10 renal was over 65 µM; in the assay on MDA-MB-435 it was over 100 µM; with A498 renal, over 100 µM. Further, the TGI in the assay on KM12 colon was over 100 µM; with SW-620 colon, over 100 µM; with NCI/ADR-RES ovarian, over 100 µM; with ACHN renal it was over 100 µM; in the assay on NCI-H226 lung, 97 µM; in the assay with SK-OV-3 ovarian it was over 100 µM. The TGI in the assay on TK-10 renal, in the assay with MDA-MB-435 and in the assay with A498 renal was over 100 µM in each case.

With `Cc1c(O)c(Br)c(C)c(O)c1Br` (tested in a mixture with another compound), the TGI in the assay on KM12 colon was 41.2 µM; in the assay with SW-620 colon, 6.83 µM; in the assay with NCI/ADR-RES ovarian, over 100 µM; in the assay with ACHN renal it was 3.05 µM; with NCI-H226 lung it was 14.8 µM; in the assay with SK-OV-3 ovarian, 29.4 µM. Besides, the TGI came to 3.01 µM in the assay on TK-10 renal, 3.44 µM in the assay with MDA-MB-435 and 29 µM in the assay on A498 renal.

For the molecule `CC12CC(=O)C3C(CCC4=CC(=O)CCC43C)C1CC=C2CC(=O)O` (centres undefined), the TGI in the assay on KM12 colon, in the assay with SW-620 colon, in the assay on NCI/ADR-RES ovarian, with ACHN renal, with NCI-H226 lung and with SK-OV-3 ovarian was over 100 µM each time. Further, the TGI with TK-10 renal, in the assay on MDA-MB-435 and in the assay with A498 renal was over 100 µM throughout.

On to `CCCCCCSc1nc(COC(=O)NC)c(COC(=O)NC)n1C`, for which the TGI with KM12 colon, in the assay with SW-620 colon, in the assay on NCI/ADR-RES ovarian, in the assay with ACHN renal, in the assay on NCI-H226 lung and in the assay with SK-OV-3 ovarian was over 100 µM each time. Besides, the TGI in the assay on TK-10 renal, in the assay with MDA-MB-435 and with A498 renal was over 100 µM each time.
